Converted amounts (≈) assume the structure as drawn.
Experiments:
[1] = molecular target: T1, Leukotriene B4 receptor 2 (Homo sapiens, UniProt Q9NPC1); experiment: Agonist activity at human BLT2 expressed in CHO-K1 cells overexpressing GNA14 assessed as induction of IP-1 accumulation incubated for 90 mins by HTRF assay; type: functional, cell-based
T1 sequence (Q9NPC1 whole entry): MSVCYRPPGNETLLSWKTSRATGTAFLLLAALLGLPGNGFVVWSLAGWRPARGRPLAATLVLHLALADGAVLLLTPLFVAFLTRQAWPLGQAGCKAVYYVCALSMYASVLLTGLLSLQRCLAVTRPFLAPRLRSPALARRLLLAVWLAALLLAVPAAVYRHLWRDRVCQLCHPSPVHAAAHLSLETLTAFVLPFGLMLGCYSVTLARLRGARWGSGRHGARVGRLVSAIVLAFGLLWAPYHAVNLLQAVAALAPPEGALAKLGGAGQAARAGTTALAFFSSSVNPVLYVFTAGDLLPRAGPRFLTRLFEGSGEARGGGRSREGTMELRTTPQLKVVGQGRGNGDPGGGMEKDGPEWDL

[2] = Half-life in male C57BL/6J mouse at 10 mg/kg, po by LC-MS analysis; type: ADME, organism-based; conditions: in vivo
[3] = Oral bioavailability in male C57BL/6J mouse at 10 mg/kg by LC-MS analysis; type: ADME, organism-based; conditions: in vivo
[4] = AUC (0 to infinity) in male C57BL/6J mouse at 10 mg/kg, SC by LC-MS analysis; type: ADME, organism-based; conditions: in vivo
[5] = Aqueous solubility of compound in PBS buffer at pH 7.4 by precipitation based plate reader analysis; type: physicochemical
[6] = Cmax in male C57BL/6J mouse at 3 mg/kg, iv by LC-MS analysis; type: ADME, organism-based; conditions: in vivo
U2OS = experiment: Cytotoxicity against human U2OS cells assessed as effect on cell viability at 10 uM measured after 24 hrs by CellTiter-Glo assay; type: toxicity, cell-based
[7] = Tmax in male C57BL/6J mouse at 10 mg/kg, po by LC-MS analysis; type: ADME, organism-based; conditions: in vivo
[8] = Half-life in male C57BL/6J mouse at 3 mg/kg, iv by LC-MS analysis; type: ADME, organism-based; conditions: in vivo
[9] = Cytotoxicity against human MRC9 cells assessed as effect on cell viability at 10 uM measured after 24 hrs by CellTiter-Glo assay; type: toxicity, cell-based; conditions: mrc9, 24 h
[10] = AUC (0 to infinity) in male C57BL/6J mouse at 10 mg/kg, po by LC-MS analysis; type: ADME, organism-based; conditions: in vivo
[11] = Toxicity in male C57BL/6J mouse assessed as effect on normal behavior at 10 mg/kg, po; type: organism-based; conditions: in vivo
[12] = Cmax in male C57BL/6J mouse at 10 mg/kg, po by LC-MS analysis; type: ADME, organism-based; conditions: in vivo
[13] = AUC (0 to infinity) in male C57BL/6J mouse at 3 mg/kg, iv by LC-MS analysis; type: ADME, organism-based; conditions: in vivo
[14] = Half-life in male C57BL/6J mouse at 10 mg/kg, SC by LC-MS analysis; type: ADME, organism-based; conditions: in vivo
[15] = Toxicity in male C57BL/6J mouse assessed as effect on normal behavior at 3 mg/kg, iv; type: organism-based; conditions: in vivo
HEK-293T = experiment: Cytotoxicity against HEK293T cells assessed as effect on cell viability at 10 uM measured after 24 hrs by CellTiter-Glo assay; type: toxicity, cell-based; conditions: human
HepG2 = experiment: Cytotoxicity against human HepG2 cells assessed as effect on cell viability at 100 uM measured after 72 hrs by CellTiter-Glo assay; type: toxicity, cell-based; conditions: hepg2, 72 h
[16] = Toxicity in male C57BL/6J mouse assessed as effect on normal behavior at 10 mg/kg, SC; type: organism-based; conditions: in vivo
[17] = Metabolic stability in Sprague-Dawley rat liver microsomes assessed as parent compound remaining measured upto 60 mins in presence of NADPH by HPLC analysis; type: ADME, Microsome; conditions: read-out: Stability
[18] = molecular target: T2, Type-1 angiotensin II receptor (Homo sapiens, UniProt P30556)
T2 sequence (P30556 whole entry): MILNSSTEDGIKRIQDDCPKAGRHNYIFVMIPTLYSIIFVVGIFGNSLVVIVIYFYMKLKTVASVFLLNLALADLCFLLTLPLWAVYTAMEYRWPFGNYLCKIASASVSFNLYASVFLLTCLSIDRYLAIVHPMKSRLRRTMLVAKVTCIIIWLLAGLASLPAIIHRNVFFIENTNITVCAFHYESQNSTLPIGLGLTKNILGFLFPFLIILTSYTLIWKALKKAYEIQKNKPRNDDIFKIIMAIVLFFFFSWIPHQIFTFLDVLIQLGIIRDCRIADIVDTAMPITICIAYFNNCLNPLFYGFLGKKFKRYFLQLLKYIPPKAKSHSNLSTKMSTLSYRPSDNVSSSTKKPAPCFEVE
Description: Antagonist activity at human AT1 receptor expressed in CHO-K1 cells co-expressing GNA14 assessed as inhibition of Val5-Angiotensin-II induced IP-1 accumulation incubated for 90 mins by HTRF assay

[19] = molecular target: T1, Leukotriene B4 receptor 2; experiment: Agonist activity at human BLT2 expressed in CHO-K1 cells overexpressing GNAi2 assessed as inhibition of forskolin-induced cAMP accumulation preincubated for 40 mins followed by forskolin addition and measured after 20 mins by HTRF assay; type: functional, cell-based
[20] = molecular target: T1, Leukotriene B4 receptor 2; experiment: Agonist activity at BLT2 (unknown origin); type: functional
[21] = molecular target: T1, Leukotriene B4 receptor 2; experiment: Displacement of FITC-labeled tracer from Lumi4 Tb-labeled BLT2 (unknown origin) expressed in CHO-K1 cells incubated for 1 hrs by Tag-lite displacement based HTRF assay; type: cell-based
[22] = Binding affinity to BLT1 (unknown origin); parameters: species or system Homo sapiens

Q: Which EC50 [1] does the source give for `CCCCC(=O)N1CCc2ccc(-c3ccccc3C(=O)O)cc2C1` here?
A: The EC50 was 18.4 µM.

Q: For `CCCCC(=O)N1CC2(C1)CN(c1ccccc1-c1nnn[nH]1)C2`, which half-life [2] is on record?
A: The half-life was 154 min.

Q: What about the bioavailability [3] of the same compound?
A: The bioavailability was 51%.

Q: And the AUC(0-inf) [4]?
A: The AUC(0-inf) was 4080 ng·h/mL.

Q: What about the solubility kinetic [5] of the same compound?
A: Its solubility kinetic is at least 1000 µM.

Q: And the Cmax [6]?
A: Its Cmax is 3290 ng/mL.

Q: What about the Activity (U2OS) of the same compound?
A: Its Activity is “Non-toxic”.

Q: What about the Tmax [7] of the same compound?
A: The Tmax was 15 min.

Q: What about the half-life [8] of the same compound?
A: Its half-life is 19 min.

Q: And the Activity [9]?
A: The Activity was “Non-toxic”.

Q: What about the AUC(0-inf) [10] of the same compound?
A: The AUC(0-inf) was 1730 ng·h/mL.

Q: What about the Activity [11] of the same compound?
A: Its Activity is “Non-toxic”.

Q: What about the Cmax [12] of the same compound?
A: The Cmax was 1990 ng/mL.

Q: And the AUC(0-inf) [13]?
A: Its AUC(0-inf) is 1020 ng·h/mL.

Q: What about the half-life [14] of the same compound?
A: The half-life was 62 min.

Q: And the Activity [15]?
A: Its Activity is “Non-toxic”.

Q: And the Activity (HEK-293T)?
A: Its Activity is “Non-toxic”.

Q: What about the Activity (HepG2) of the same compound?
A: The Activity was “Non-toxic”.

Q: And the Activity [16]?
A: The Activity was “Non-toxic”.

Q: What about the remaining at 1 h [17] of the same compound?
A: Its remaining at 1 h is 97.5%.

Q: Which results are given for `CCc1nnc(N2Cc3ccc(-c4ccccc4-c4nnn[nH]4)cc3C2)o1`?
A: solubility kinetic [5]: 750 µM (≈ 270 µg/mL); IC50 [18]: 15.8 µM; remaining at 1 h [17]: 101%

Q: For `CCCCC(=O)N1Cc2cc(-c3ccccc3-c3nnn[nH]3)ccc2C1C` (stereo unspecified), which EC50 [1] is on record?
A: The EC50 was 1.39 µM.

Q: For `CCCCC1(C)C(=O)N(Cc2ccc(-c3ccccc3C(=O)O)cc2)c2ccccc21` (stereo unspecified), which IC50 [18] is on record?
A: Its IC50 is 58 µM.

Q: For `CCCCC[C@H](O)/C=C/C=C/C/C=C\CCCC(=O)O`, which EC50 [19] is on record?
A: The EC50 was 1.4 nM.

Q: What about the pEC50 [20] of the same compound?
A: Its pEC50 is 7.72.

Q: For `CCCCC(=O)N1Cc2ccc(-c3ccccc3-c3nnn[nH]3)cc2C1`, which IC50 [18] is on record?
A: Its IC50 is over 400 µM.

Q: For `CCCCC(=O)N(Cc1ccc(-c2ccccc2C(=O)O)cc1)c1ccccc1`, which solubility kinetic [5] is on record?
A: The solubility kinetic was 250 µM (≈ 96.9 µg/mL).

Q: And the IC50 [18]?
A: Its IC50 is 53 µM.

Q: And the Activity (HepG2)?
A: The Activity was “Non-toxic”.

Q: What about the IC50 [21] of the same compound?
A: The IC50 was 63 nM.

Q: What about the remaining at 1 h [17] of the same compound?
A: Its remaining at 1 h is 66%.

Q: With `CCCCC/C=C\C[C@@H](O)/C=C/C=C/C=C\[C@@H](O)CCCC(=O)O` [LEUKOTRIENE_B4] as the compound, how does the pKd [22] read?
A: Its pKd is 8.5.

Q: Which solubility kinetic [5] does the source give for `CCCCC(=O)N1CCC2(CC1)CCN(c1ccccc1-c1nnn[nH]1)C2` here?
A: Its solubility kinetic is at least 1000 µM.

Q: And the IC50 [18]?
A: Its IC50 is 13.6 µM.

Q: What about the remaining at 1 h [17] of the same compound?
A: The remaining at 1 h was 99.8%.

Q: With `CCCCC1=NC2(CCCC2)C(=O)N1Cc1ccc(-c2ccccc2-c2nnn[nH]2)cc1` [IRBESARTAN] as the compound, how does the IC50 [21] read?
A: Its IC50 is at least 1500 nM.

Q: With `CCc1cnc(N2Cc3ccc(-c4ccccc4-c4nnn[nH]4)cc3C2)s1` as the compound, how does the solubility kinetic [5] read?
A: Its solubility kinetic is 250 µM (≈ 93.6 µg/mL).

Q: What about the IC50 [18] of the same compound?
A: The IC50 was 79 µM.

Q: And the remaining at 1 h [17]?
A: Its remaining at 1 h is 89%.
